The text below walks through data of US11208412B2 (DAEGU-GYEONGBUK MEDICAL INNOVATION FOUNDATION, priority 2017, dated 2021).

Assay in all cases: Kinase selectivity, DiscoverX scanMAX Kinase assay panel (% control)
Format in all cases: binding

Assay [1] has as its target T1, kinases of the scanMAX Kinase assay panel (Homo sapiens, UniProt P42336, I800L).
T1 construct: purchased DiscoverX Co. (contract measurement) scanMAX Kinase assay panel
Conditions: PIK3CA(I800L); 1 uM. The method, boiled down: (§1)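 Percent of control computed as (compound − positive control)/(negative control − positive control) × 100, DMSO defining 100% and positive control 0%. Each panel kinase exposed to 1 uM compound; values under 35% taken to mean the compound acts on that kinase.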

Assay [2] concerns the target T2, kinases of the scanMAX Kinase assay panel (Homo sapiens, UniProt O00444).
T2 construct: purchased DiscoverX Co. (contract measurement) scanMAX Kinase assay panel
T2 sequence (O00444 1-970): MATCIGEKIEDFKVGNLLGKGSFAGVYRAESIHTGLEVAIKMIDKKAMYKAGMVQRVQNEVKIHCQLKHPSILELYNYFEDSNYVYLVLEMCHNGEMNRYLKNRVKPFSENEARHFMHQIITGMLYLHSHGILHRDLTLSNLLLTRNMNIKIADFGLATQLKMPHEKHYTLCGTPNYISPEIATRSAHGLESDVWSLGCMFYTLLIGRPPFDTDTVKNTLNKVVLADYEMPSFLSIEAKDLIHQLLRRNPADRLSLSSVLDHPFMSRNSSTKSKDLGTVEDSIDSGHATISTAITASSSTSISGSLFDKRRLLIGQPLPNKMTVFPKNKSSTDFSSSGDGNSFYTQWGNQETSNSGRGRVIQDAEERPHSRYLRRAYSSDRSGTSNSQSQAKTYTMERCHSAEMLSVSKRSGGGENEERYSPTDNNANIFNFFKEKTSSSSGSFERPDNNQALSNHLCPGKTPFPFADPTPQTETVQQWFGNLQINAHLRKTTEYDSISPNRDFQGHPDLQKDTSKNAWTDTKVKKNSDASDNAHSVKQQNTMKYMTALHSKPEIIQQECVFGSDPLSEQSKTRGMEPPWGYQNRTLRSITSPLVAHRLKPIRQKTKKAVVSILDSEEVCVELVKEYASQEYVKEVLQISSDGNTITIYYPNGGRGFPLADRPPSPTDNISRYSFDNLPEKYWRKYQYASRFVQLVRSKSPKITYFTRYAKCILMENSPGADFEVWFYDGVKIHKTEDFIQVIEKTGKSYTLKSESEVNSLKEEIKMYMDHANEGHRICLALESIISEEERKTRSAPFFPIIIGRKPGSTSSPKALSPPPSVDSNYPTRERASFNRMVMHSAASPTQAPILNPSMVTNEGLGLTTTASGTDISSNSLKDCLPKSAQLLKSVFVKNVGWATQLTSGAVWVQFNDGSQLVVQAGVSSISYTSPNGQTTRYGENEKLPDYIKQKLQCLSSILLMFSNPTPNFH
The note with it: PLK4; 1 uM. The method, boiled down:
as §1

Assay [3] concerns the target T3, kinases of the scanMAX Kinase assay panel (Homo sapiens, UniProt Q9Y243).
T3 construct: purchased DiscoverX Co. (contract measurement) scanMAX Kinase assay panel
The note with it: AKT3; 1 uM. The method, boiled down: as §1

Assay [4] has as its target T4, kinases of the scanMAX Kinase assay panel (Homo sapiens, UniProt Q13163).
T4 construct: purchased DiscoverX Co. (contract measurement) scanMAX Kinase assay panel
T4 sequence (Q13163 1-448): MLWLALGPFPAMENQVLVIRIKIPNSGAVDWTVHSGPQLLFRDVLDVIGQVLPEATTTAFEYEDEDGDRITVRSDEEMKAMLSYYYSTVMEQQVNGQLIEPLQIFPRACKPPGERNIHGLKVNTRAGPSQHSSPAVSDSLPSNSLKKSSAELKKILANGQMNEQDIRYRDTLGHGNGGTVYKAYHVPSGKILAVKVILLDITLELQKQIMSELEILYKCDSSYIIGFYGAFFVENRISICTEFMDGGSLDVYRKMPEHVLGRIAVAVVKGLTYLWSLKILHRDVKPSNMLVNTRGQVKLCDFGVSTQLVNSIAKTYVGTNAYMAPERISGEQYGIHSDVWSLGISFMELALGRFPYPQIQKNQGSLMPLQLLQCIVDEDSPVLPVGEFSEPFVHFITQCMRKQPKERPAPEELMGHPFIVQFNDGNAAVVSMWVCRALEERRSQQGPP
Conditions: MEK5; 1 uM. The method, boiled down: as §1

The target of assay [5] is T5, kinases of the scanMAX Kinase assay panel (Homo sapiens, UniProt P10721, D816H).
T5 construct: purchased DiscoverX Co. (contract measurement) scanMAX Kinase assay panel
T5 sequence (P10721 26-976 D816H): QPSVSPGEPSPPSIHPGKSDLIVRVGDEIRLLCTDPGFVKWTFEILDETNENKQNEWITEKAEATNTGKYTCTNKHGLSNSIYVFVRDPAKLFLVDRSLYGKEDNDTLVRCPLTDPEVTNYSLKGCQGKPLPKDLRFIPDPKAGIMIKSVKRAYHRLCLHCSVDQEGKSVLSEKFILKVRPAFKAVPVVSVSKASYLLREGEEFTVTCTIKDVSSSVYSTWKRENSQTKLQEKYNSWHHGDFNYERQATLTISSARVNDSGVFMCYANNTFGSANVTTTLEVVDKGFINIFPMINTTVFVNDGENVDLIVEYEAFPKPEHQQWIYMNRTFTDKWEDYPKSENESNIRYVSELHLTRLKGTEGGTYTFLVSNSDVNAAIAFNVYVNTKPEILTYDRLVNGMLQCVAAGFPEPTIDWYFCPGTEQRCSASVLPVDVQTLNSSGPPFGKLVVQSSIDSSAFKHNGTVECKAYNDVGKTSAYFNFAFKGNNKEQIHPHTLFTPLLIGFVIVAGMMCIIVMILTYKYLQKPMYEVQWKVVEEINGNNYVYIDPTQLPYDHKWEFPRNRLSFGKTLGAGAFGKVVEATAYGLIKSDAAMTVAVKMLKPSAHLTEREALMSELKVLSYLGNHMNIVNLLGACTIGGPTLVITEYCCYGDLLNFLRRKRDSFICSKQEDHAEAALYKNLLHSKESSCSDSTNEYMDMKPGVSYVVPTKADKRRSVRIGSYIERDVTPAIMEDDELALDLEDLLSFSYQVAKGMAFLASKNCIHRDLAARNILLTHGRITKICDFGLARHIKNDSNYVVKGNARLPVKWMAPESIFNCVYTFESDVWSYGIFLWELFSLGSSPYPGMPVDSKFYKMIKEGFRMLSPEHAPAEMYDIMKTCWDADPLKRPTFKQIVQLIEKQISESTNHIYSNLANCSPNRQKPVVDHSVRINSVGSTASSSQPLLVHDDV
The note with it: KIT(D816H); 1 uM. The method, boiled down:
as §1

In assay [6] the target is T6, kinases of the scanMAX Kinase assay panel (Homo sapiens, UniProt O14965).
T6 construct: purchased DiscoverX Co. (contract measurement) scanMAX Kinase assay panel
T6 sequence (O14965 1-403): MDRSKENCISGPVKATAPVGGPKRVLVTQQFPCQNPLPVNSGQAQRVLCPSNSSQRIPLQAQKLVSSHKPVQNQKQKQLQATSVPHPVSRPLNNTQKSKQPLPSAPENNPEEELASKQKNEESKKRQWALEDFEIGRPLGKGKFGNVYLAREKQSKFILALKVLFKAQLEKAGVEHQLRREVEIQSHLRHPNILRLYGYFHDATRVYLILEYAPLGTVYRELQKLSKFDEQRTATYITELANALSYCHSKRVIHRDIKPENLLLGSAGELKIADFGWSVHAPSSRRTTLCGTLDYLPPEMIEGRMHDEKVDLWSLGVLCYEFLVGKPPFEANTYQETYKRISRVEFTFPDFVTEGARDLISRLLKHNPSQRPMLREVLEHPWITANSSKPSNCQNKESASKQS
Conditions: AURKA; 1 uM. The method, boiled down:
as §1

T3 sequence (Q9Y243 whole entry): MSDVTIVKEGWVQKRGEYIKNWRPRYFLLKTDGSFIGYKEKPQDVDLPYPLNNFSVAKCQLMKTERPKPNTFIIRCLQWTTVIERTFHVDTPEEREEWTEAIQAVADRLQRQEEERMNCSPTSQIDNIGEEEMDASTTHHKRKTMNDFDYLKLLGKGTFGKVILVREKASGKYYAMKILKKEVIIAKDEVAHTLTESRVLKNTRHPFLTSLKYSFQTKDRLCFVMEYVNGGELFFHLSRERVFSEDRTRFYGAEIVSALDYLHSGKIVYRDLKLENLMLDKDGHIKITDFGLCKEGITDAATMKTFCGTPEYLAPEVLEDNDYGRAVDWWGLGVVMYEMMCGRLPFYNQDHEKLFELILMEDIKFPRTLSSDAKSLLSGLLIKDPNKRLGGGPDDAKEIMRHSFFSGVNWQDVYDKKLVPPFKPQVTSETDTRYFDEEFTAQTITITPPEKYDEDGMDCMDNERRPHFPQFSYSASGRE
T1 sequence (P42336 whole entry I800L): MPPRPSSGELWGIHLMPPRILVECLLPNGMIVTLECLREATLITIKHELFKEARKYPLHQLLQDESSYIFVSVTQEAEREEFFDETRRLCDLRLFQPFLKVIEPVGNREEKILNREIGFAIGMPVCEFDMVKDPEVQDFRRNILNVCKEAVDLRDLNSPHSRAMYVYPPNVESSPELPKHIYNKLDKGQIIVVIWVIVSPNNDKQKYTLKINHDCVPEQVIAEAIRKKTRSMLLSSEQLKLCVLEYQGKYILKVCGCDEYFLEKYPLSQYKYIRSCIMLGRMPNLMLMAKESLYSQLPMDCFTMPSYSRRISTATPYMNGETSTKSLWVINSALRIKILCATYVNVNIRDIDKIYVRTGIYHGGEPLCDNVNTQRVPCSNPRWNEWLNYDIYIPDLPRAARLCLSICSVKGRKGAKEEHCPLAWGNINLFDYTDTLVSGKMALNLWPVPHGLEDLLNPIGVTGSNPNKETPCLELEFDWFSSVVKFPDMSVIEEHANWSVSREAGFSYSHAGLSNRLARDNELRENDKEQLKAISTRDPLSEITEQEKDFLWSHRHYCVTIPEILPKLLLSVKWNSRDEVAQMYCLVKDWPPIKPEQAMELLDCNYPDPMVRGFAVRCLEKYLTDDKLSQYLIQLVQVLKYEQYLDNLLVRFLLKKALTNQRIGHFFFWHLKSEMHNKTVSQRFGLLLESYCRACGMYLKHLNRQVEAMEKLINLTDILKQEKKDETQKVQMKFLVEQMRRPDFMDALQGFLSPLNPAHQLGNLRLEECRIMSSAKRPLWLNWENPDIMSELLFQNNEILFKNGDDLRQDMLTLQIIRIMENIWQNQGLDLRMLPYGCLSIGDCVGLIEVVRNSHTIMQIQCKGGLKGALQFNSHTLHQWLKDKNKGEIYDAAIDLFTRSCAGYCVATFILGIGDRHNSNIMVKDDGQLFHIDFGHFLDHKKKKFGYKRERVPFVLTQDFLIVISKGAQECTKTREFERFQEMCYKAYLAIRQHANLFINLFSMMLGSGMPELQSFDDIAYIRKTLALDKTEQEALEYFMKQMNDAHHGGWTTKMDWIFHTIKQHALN

On to `CC1(Nc2nc(Nc3cnn([C@H]4CCN(C5COC5)C[C@@H]4F)c3Cl)nc3[nH]cc(C#N)c23)CC1` [Example 52, 2-((5-chloro-1-((3S,4S)-3-fluoro-1-(oxetane-3-yl)piperidine-4-yl)-1H-pyrazole-4-yl)amino)((1-methylcyclopropyl)amino)-7H-pyrrolo[2,3-d]pyrimidine-5-carbonitrile], for which the remaining binding at 1 µM in assay [1] amounted to 0.1%; in assay [2], 0%; in assay [3], 4.5%; in assay [4], 0.05%; in assay [5], 8.1%; in assay [6] it was 0.85%.
Take `CCNc1nc(Nc2ccc(C(=O)N3CCC(N4CCOCC4)CC3)cc2OC)nc2[nH]cc(C(F)(F)F)c12` [Example 104, (4-((4-(ethylamino)-5-(trifluoromethyl)-7H-pyrrolo[2,3-d]pyrimidine-2-yl)amino)-3-methoxyphenyl)(4-morpholinopiperidine-1-yl)methanone]: the remaining binding at 1 µM in assay [1] was 72%; in assay [2], 1.7%; in assay [3], 100%; in assay [4], 74%; in assay [5] it was 100%; in assay [6], 87%.
For the compound `CNc1nc(Nc2ccc(C(=O)N3CCOCC3)cc2OC)nc2[nH]cc(C#N)c12` [Example 1, 2-((2-methoxy-4-(morpholine-4-carbonyl)phenyl)amino)-4-(methylamino)-7H-pyrrolo[2,3-d]pyrimidine-5-carbonitrile], the remaining binding at 1 µM in assay [1] was 100%; in assay [2], 17%; in assay [3] it was 70%; in assay [4], 47%; in assay [5], 77%; in assay [6], 99%.
